Results: patent publication US10640507B2, “PBD antibacterial agents” (KING'S COLLEGE LONDON, priority 2015, dated 2020)
Like-named read-outs stand apart in the source and are kept apart here.

Assays:
A. baumannii - AYE = assay type: cell-based; details: drug at 4×MIC
Experimental: (§1) 1. Grow bacteria overnight.
(§2) 2. Subculture into an autoclaved conical flask containing 10 ml of TSB to an OD of 0.01 (˜1×10^7 Cfu/ml for KP-M6).
(§3) 4. Take aliquots (100 μl) at timepoints (0, 1, 2, 4, 6, 24 hours) and carry out a serial dilution in PBS (to remove drug and to dilute bacteria to countable numbers).
(§4) 5. Use the serial dilution to perform a Miles Misra—i.e. Add 3×10 μl spots of each dilution onto an agar plate. Incubate overnight and count colonies on spots in the morning.
(§5) 6. Control: Subculture bacteria alongside samples but with no antibiotic added. Take aliquots from this at every time point (0, 1, 2, 4, 6, 24 hours) and perform Miles Misra on these too (as detailed in points 4 and 5 above).
(§6) 7. After the first experiment, if the counts seen on Miles-Misra were zero, total viable counts were determined by spreading 200 μl in a streak down the centre of a TSB agar plate, waiting for the liquid to be absorbed and then spreading over the plate and checking for growth inhibition at the sight of the original streak.
(§7) 8. The compound is considered bactericidal if the inoculum was reduced >3 log10 CFU/ml and bacteriostatic if inoculum was reduced by 0-3 log10 CFU/ml.
(§8) Three measurements were taken for each compound at each time point. These measurements were averaged and the standard deviation was also calculated.

A. baumannii - NCTC13424 = assay type: cell-based; details: drug at 4×MIC
Experimental: as §1, §2, §3, §4, §5, §6, §7, §8

[1] = system: K. pneumonia - NCTC 13368; assay type: cell-based; details: drug at 4×MIC
Experimental: as §1, §2, §3, §4, §5, §6, §7, §8

[2] = system: K. pneumonia - NCTC 13438; assay type: cell-based; details: drug at 4×MIC
Experimental: as §1, §2, §3, §4, §5, §6, §7, §8

E. coli Topo IV = biological target: T1, E. coli Topo IV (Escherichia coli, UniProt P0AFI2+P20083); test: Topo IV microplate assay; assay type: biochemical; details: agent 10-75 μM, FIG. 5
T1 construct: purchased Inspiralis (Norwich, UK) TRIV01
Experimental: (§9) The effect of the antimicrobial agents on gyrase was assessed using E. coli gyrase microplate assay kit (# TRG01) and with S. aureus gyrase microplate assay kit (# SATRG01). The effect of topoisomerase IV using was assessed using E. coli Topo IV microplate assay kit (# TRIV01) and with the S. aureus Topo IV microplate assay kit (# SATRIV01). All of these assay kits were obtained from Inspiralis (Norwich, UK). These assay kits are supplied with the relevant enzyme, substrate and buffers.
(§10) 1. Rehydrate wells with 3×200 μl Wash buffer (diluted from 20× stock with ultra-pure water).
(§11) 2. Immobilise 100 μl of 500 nM TF01 oligo in each well (5 μl of 10 μM TF01 oligo in 95 μl wash buffer).
(§12) 3. Incubate 5 minutes at room temperature.
(§13) 4. Wash off excess oligo with 3×200 μl Wash buffer.
(§14) 5. Incubate 2U (0.4 μl stock) of gyrase with 0.75 μg of relaxed pN01 in a reaction volume of 30 μl at 37° C. for 30 minutes in assay buffer—This is the part agent is added therefore the reaction volume is adjusted to account for this.
(§15) 6. Add 100 μl TF buffer (diluted from 20× stock) to well and incubate for a further 30 minutes at room temperature to allow triplex formation.
(§16) 7. Remove liquid from well and wash with 3×200 μl TF buffer to wash away unbound plasmid.
(§17) 8. Stain with DNA detection dye (diluted to ix with T10 buffer). Add 200 μl per well and incubate for 10-20 minutes at room temperature.
(§18) 9. Mix well and read in fluorescence plate reader Excitation wavelength: 495 nm; Emission wavelength: 537 nm. Use 485/520 filters in plate reader in 231.
(§19) 10. If required 10 μl of sample can be used to run on 1% agarose gel.
(§20) As the reaction volume is 30 μl make concentrations at 30× greater than required so 1 μl of the appropriate concentration can be added to the reaction. For each agent concentrations from a range of 10-75 μM.
(§21) The procedure for assessing effect of the agents on topoisomerase IV was the same as for the gyrase apart from the following changes; 1.5 U of topoisomerase IV was used in place of gyrase and supercoiled pN01 instead of relaxed pN01 was used in step 5. Results obtained were normalised using the following equation: […]
(§22) Xmin—minima among all data points
(§23) Xmax—maxima among all data points
(§24) Xi0-1—data point normalised between 0-1

S. aureus Topo IV = biological target: T2, S. aureus Topo IV (Staphylococcus aureus, UniProt P0C1S7+P0C1U9); test: Topo IV microplate assay; assay type: biochemical; details: agent 10-75 μM, FIG. 5
T2 construct: purchased Inspiralis (Norwich, UK) SATRIV01
Experimental: as §9, §10, §11, §12, §13, §14, §15, §16, §17, §18, §19, §20, §21, §22, §23, §24

T1 sequence (P20083 whole entry): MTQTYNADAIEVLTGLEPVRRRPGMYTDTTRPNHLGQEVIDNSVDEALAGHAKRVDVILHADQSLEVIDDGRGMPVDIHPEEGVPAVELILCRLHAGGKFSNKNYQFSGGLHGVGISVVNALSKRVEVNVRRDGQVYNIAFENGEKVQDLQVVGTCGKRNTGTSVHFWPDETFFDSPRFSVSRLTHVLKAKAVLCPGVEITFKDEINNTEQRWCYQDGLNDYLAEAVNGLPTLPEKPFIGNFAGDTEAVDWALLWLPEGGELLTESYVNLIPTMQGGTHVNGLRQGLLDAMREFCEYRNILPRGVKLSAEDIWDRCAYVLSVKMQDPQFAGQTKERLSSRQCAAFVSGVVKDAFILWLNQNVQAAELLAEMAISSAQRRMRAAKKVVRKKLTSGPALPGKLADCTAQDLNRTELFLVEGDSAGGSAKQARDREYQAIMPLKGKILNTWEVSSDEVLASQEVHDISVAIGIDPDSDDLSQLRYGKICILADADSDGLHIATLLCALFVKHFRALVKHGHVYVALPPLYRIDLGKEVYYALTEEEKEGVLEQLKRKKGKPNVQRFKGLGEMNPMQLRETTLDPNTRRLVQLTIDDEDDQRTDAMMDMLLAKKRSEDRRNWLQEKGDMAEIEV
T1 sequence (P0AFI2 whole entry): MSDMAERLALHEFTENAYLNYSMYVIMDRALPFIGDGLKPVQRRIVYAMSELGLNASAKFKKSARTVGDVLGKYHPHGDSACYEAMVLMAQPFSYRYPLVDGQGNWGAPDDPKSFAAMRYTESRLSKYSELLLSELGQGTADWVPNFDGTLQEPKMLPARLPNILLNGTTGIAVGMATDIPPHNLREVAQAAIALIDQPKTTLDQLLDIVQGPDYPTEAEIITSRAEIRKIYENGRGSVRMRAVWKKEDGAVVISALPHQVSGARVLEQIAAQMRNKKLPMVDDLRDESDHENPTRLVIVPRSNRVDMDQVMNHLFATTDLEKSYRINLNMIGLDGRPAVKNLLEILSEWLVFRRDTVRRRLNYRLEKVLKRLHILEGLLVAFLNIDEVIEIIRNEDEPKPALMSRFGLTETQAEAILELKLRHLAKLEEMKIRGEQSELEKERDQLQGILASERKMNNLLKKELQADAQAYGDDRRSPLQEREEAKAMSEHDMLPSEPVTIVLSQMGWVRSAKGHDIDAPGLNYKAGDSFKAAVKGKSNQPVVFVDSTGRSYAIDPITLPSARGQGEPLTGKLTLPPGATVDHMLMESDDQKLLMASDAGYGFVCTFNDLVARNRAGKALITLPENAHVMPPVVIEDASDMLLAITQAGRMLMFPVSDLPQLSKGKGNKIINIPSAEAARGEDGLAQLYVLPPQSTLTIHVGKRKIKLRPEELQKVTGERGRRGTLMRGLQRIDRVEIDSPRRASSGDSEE
T2 sequence (P0C1U9 whole entry): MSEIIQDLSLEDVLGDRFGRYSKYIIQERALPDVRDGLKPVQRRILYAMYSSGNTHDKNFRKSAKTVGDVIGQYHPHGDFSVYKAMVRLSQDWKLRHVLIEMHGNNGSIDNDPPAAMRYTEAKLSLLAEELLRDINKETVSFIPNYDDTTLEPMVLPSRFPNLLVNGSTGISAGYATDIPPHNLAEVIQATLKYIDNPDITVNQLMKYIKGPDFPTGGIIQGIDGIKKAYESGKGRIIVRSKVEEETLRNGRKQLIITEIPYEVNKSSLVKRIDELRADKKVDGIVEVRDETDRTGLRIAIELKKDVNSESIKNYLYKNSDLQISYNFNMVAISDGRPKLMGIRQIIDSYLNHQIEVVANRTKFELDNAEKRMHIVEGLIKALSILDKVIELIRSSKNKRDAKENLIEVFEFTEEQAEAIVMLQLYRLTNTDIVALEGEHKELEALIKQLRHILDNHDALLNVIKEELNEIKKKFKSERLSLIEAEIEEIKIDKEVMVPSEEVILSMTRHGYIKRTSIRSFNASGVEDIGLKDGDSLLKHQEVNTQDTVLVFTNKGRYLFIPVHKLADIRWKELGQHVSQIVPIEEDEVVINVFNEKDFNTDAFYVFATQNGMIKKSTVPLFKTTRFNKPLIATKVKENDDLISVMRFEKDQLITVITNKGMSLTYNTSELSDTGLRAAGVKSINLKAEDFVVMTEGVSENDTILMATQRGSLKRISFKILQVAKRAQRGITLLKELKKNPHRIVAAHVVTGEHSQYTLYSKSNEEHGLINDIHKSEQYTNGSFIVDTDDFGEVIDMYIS
T2 sequence (P0C1S7 whole entry): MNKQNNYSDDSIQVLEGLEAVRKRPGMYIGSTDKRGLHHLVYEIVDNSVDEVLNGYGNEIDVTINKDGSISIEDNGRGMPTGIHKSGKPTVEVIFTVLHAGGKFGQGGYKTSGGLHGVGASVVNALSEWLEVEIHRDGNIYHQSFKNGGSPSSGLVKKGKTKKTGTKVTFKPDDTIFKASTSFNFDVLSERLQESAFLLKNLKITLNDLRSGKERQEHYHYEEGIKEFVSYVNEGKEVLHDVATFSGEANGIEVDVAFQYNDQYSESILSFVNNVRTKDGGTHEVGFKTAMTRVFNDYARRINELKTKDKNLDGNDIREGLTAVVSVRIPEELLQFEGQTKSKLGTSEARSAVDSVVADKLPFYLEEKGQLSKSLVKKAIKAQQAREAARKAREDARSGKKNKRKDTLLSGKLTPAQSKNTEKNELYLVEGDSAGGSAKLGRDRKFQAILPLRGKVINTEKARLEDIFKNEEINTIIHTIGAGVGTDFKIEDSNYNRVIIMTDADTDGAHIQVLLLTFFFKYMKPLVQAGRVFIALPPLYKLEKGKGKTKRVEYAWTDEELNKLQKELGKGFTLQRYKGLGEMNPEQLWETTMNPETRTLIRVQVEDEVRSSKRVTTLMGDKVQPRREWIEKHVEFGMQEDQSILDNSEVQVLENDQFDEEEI

SMILES: O=C(O)c1cn(C2CC2)c2cc(N3CCNCC3)c(F)cc2c1=O [CIP, ciprofloxacin, reference compound]
- Average (CFU/ml) (A. baumannii - AYE; time-point 1 hours): 2e+06 CFU/ml
- n = 1 (CFU/ml) (A. baumannii - AYE; time-point 1 hours): 2.1e+06 CFU/ml
- n = 2 (CFU/ml) (A. baumannii - AYE; time-point 1 hours): 1.9e+06 CFU/ml
- Average (CFU/ml) (A. baumannii - AYE; time-point 2 hours): 900000 CFU/ml
- n = 1 (CFU/ml) (A. baumannii - AYE; time-point 2 hours): 1.2e+06 CFU/ml
- n = 2 (CFU/ml) (A. baumannii - AYE; time-point 2 hours): 600000 CFU/ml
- Average (CFU/ml) (A. baumannii - AYE; time-point 4 hours): 750000 CFU/ml
- n = 1 (CFU/ml) (A. baumannii - AYE; time-point 4 hours): 800000 CFU/ml
- n = 2 (CFU/ml) (A. baumannii - AYE; time-point 4 hours): 700000 CFU/ml
- Average (CFU/ml) (A. baumannii - AYE; time-point 6 hours): 2.1e+06 CFU/ml
- n = 1 (CFU/ml) (A. baumannii - AYE; time-point 6 hours): 2e+06 CFU/ml
- n = 2 (CFU/ml) (A. baumannii - AYE; time-point 6 hours): 2.2e+06 CFU/ml
- n = 1 (CFU/ml) (A. baumannii - AYE; time-point 24 hours): 7e+08 CFU/ml
- n = 2 (CFU/ml) (A. baumannii - AYE; time-point 24 hours): 1.4e+08 CFU/ml
- Average (CFU/mL) (A. baumannii - NCTC13424; time-point 1 hours): 2.57e+06 CFU/mL
- n = 1 (CFU/mL) (A. baumannii - NCTC13424; time-point 1 hours): 2.5e+06 CFU/mL
- n = 2 (CFU/ml) (A. baumannii - NCTC13424; time-point 1 hours): 2.2e+06 CFU/ml
- n = 3 (CFU/mL) (A. baumannii - NCTC13424; time-point 1 hours): 3e+06 CFU/mL
- Average (CFU/mL) (A. baumannii - NCTC13424; time-point 2 hours): 42000 CFU/mL
- n = 1 (CFU/mL) (A. baumannii - NCTC13424; time-point 2 hours): 80000 CFU/mL
- n = 2 (CFU/ml) (A. baumannii - NCTC13424; time-point 2 hours): 21000 CFU/ml
- n = 3 (CFU/mL) (A. baumannii - NCTC13424; time-point 2 hours): 25000 CFU/mL
- Average (CFU/mL) (A. baumannii - NCTC13424; time-point 4 hours): 7330 CFU/mL
- n = 1 (CFU/mL) (A. baumannii - NCTC13424; time-point 4 hours): 12000 CFU/mL
- n = 2 (CFU/ml) (A. baumannii - NCTC13424; time-point 4 hours): 1000 CFU/ml
- n = 3 (CFU/mL) (A. baumannii - NCTC13424; time-point 4 hours): 9000 CFU/mL
- Average (CFU/mL) (A. baumannii - NCTC13424; time-point 6 hours): 11200 CFU/mL
- n = 1 (CFU/mL) (A. baumannii - NCTC13424; time-point 6 hours): 10000 CFU/mL
- n = 2 (CFU/ml) (A. baumannii - NCTC13424; time-point 6 hours): 14300 CFU/ml
- n = 3 (CFU/mL) (A. baumannii - NCTC13424; time-point 6 hours): 9200 CFU/mL
- n = 1 (CFU/mL) (A. baumannii - NCTC13424; time-point 24 hours): 3.6e+08 CFU/mL
- n = 2 (CFU/ml) (A. baumannii - NCTC13424; time-point 24 hours): 1.9e+09 CFU/ml
- n = 3 (CFU/mL) (A. baumannii - NCTC13424; time-point 24 hours): 2.75e+09 CFU/mL
- Average (CFU/ml) ([1]; time-point 1 hours): 2.38e+06 CFU/ml
- n = 2 (CFU/ml) ([1]; time-point 1 hours): 110000 CFU/ml
- n = 3 (CFU/ml) ([1]; time-point 1 hours): 28000 CFU/ml
- viable count ([1]; time-point 1 hours): 7e+06 CFU/mL
- Average (CFU/ml) ([1]; time-point 2 hours): 118000 CFU/ml
- n = 2 (CFU/ml) ([1]; time-point 2 hours): 650 CFU/ml
- n = 3 (CFU/ml) ([1]; time-point 2 hours): 2500 CFU/ml
- viable count ([1]; time-point 2 hours): 350000 CFU/mL
- Average (CFU/ml) ([1]; time-point 4 hours): 75.3 CFU/ml
- n = 2 (CFU/ml) ([1]; time-point 4 hours): 55 CFU/ml
- n = 3 (CFU/ml) ([1]; time-point 4 hours): 170 CFU/ml
- viable count ([1]; time-point 4 hours): 0 CFU/mL
- Average (CFU/ml) ([1]; time-point 6 hours): 65.3 CFU/ml
- n = 2 (CFU/ml) ([1]; time-point 6 hours): 80 CFU/ml
- n = 3 (CFU/ml) ([1]; time-point 6 hours): 115 CFU/ml
- viable count ([1]; time-point 6 hours): 0 CFU/mL
- Average (CFU/ml) ([1]; time-point 24 hours): 0 CFU/ml
- n = 2 (CFU/ml) ([1]; time-point 24 hours): 0 CFU/ml
- n = 3 (CFU/ml) ([1]; time-point 24 hours): 0 CFU/ml
- viable count ([1]; time-point 24 hours): 0 CFU/mL
- n = 1 (CFU/ml) ([2]; time-point 1 hours): 1e+07 CFU/ml
- n = 2 (CFU/ml) ([2]; time-point 1 hours): 9e+06 CFU/ml
- n = 1 (CFU/ml) ([2]; time-point 2 hours): 3.8e+07 CFU/ml
- n = 2 (CFU/ml) ([2]; time-point 2 hours): 3.7e+07 CFU/ml
- Average (Log CFU/ml) ([2]; time-point 4 hours): 1.17E+09 Log CFU/ml
- n = 1 (CFU/ml) ([2]; time-point 4 hours): 1.5e+09 CFU/ml
- n = 2 (CFU/ml) ([2]; time-point 4 hours): 1e+09 CFU/ml
- Average (Log CFU/ml) ([2]; time-point 6 hours): 3.07E+09 Log CFU/ml
- n = 1 (CFU/ml) ([2]; time-point 6 hours): 3.9e+09 CFU/ml
- n = 2 (CFU/ml) ([2]; time-point 6 hours): 2.5e+09 CFU/ml
- Average (Log CFU/ml) ([2]; time-point 24 hours): 6.23E+09 Log CFU/ml
- n = 1 (CFU/ml) ([2]; time-point 24 hours): 6e+09 CFU/ml
- n = 2 (CFU/ml) ([2]; time-point 24 hours): 6.7e+09 CFU/ml
- effect on topoisomerase IV (E. coli Topo IV): inhibits
- effect on topoisomerase IV (S. aureus Topo IV): inhibits

SMILES: COc1cc2c(cc1OCCCC(=O)Nc1cc(C(=O)Nc3ccc4oc(C(=O)N5CCSCC5)cc4c3)n(C)c1)N=C[C@@H]1CCCN1C2=O [PP-A148, (S)-4-(4-((7-methoxy-5-oxo-2,3,5,11a-tetrahydro-1H-benzo-[e]pyrrolo[1,2-a][1,4]diazepin-8-yl)oxy)butanamido)-1-methyl-N-(2-(thiomorpholine-4-carbonyl)benzofuran-5-yl)-1H-pyrrole-2-carboxamide]
- effect on topoisomerase IV (E. coli Topo IV): does not inhibit
- effect on topoisomerase IV (S. aureus Topo IV): does not inhibit
